Experimental data as given in publication PMC7093416, “Selective USP7 inhibition elicits cancer cell killing through a p53-dependent mechanism” (Scientific Reports, 2020).

System: panel of 484 cancer cell lines
Assay: PRISM cancer cell line profiling, 5 days
Type: cell-based
Set-up: AUC: unit not given beside the values
Protocol: Cancer cell line profiling was performed using the Broad’s PRISM platform. Cell treatment and data analysis were performed as described in Yu et al[42]. Raw Luminex signal was converted to AUC values for each cell line as described. The resulting AUC profile for each compound was modeled against DepMap using the limma package in R[71]. Because hotspot mutation analysis was performed against DepMap, TP53 annotations in Fig. 6c,d are directly from DepMap.

Compound: COc1ccc(C2=N[C@@H](c3ccc(Cl)cc3)[C@@H](c3ccc(Cl)cc3)N2C(=O)N2CCNC(=O)C2)c(OC(C)C)c1 [Nutlin-3A]
- AUC (NCIH2170_LUNG): 1.154
- AUC (NCIH2172_LUNG): 1.147
- AUC (NCIH2228_LUNG): 1.087
- AUC (NCIH2347_LUNG): 0.9531
- AUC (NCIH2444_LUNG): 1.324
- AUC (NCIH2452_PLEURA): 1.028
- AUC (NCIN87_STOMACH): 1.465
- AUC (NUGC3_STOMACH): 1.1161
- AUC (NUGC4_STOMACH): 0.888
- AUC (OAW42_OVARY): 1.011
- AUC (OC314_OVARY): 0.964
- AUC (OC316_OVARY): 0.9756
- AUC (OE19_OESOPHAGUS): 1.199
- AUC (OE21_OESOPHAGUS): 1.087
- AUC (OE33_OESOPHAGUS): 0.9763
- AUC (ONCODG1_OVARY): 1.1325
- AUC (ONS76_CENTRAL_NERVOUS_SYSTEM): 0.8865
- AUC (OSRC2_KIDNEY): 0.8477
- AUC (OUMS23_LARGE_INTESTINE): 1.065
- AUC (OV56_OVARY): 1.192
- AUC (OVCAR8_OVARY): 1.207
- AUC (OVISE_OVARY): 0.8578
- AUC (OVK18_OVARY): 0.8595
- AUC (OVSAHO_OVARY): 1.156
- AUC (OVTOKO_OVARY): 0.9039
- AUC (PANC1_PANCREAS): 1.1
- AUC (PANC0203_PANCREAS): 1.166
- AUC (PANC0327_PANCREAS): 1.409
- AUC (PANC0403_PANCREAS): 1.138
- AUC (PANC0813_PANCREAS): 1.0676
- AUC (PANC1005_PANCREAS): 1.216
- AUC (PATU8902_PANCREAS): 1.154
- AUC (PATU8988S_PANCREAS): 1.234
- AUC (PATU8988T_PANCREAS): 1.162
- AUC (PC3_PROSTATE): 0.976
- AUC (PC14_LUNG): 1.1376
- AUC (PECAPJ15_UPPER_AERODIGESTIVE_TRACT): 1.095
- AUC (PECAPJ41CLONED2_UPPER_AERODIGESTIVE_TRACT): 1.019
- AUC (PECAPJ49_UPPER_AERODIGESTIVE_TRACT): 1.2004
- AUC (PK1_PANCREAS): 1.122
- AUC (PK45H_PANCREAS): 1.1189
- AUC (PK59_PANCREAS): 1.0633
- AUC (PLCPRF5_LIVER): 1.234
- AUC (PSN1_PANCREAS): 1.126
- AUC (QGP1_PANCREAS): 1.087
- AUC (RCC10RGB_KIDNEY): 0.8832
- AUC (RCM1_LARGE_INTESTINE): 1.202
- AUC (RD_SOFT_TISSUE): 1.042
- AUC (RERFLCAD1_LUNG): 1.147
- AUC (RERFLCAD2_LUNG): 1.183
- AUC (RERFLCAI_LUNG): 1.0697
- AUC (RERFLCKJ_LUNG): 1.11
- AUC (RERFLCMS_LUNG): 1.091
- AUC (RH30_SOFT_TISSUE): 1.041
- AUC (RKN_SOFT_TISSUE): 1.06
- AUC (RKO_LARGE_INTESTINE): 0.9236
- AUC (RL952_ENDOMETRIUM): 0.9689
- AUC (RMGI_OVARY): 0.9145
- AUC (RMUGS_OVARY): 1.151
- AUC (RT4_URINARY_TRACT): 1.199
- AUC (RT112_URINARY_TRACT): 0.9358
- AUC (RVH421_SKIN): 1.087
- AUC (S117_SOFT_TISSUE): 1.193
- AUC (SBC5_LUNG): 1.066
- AUC (SCABER_URINARY_TRACT): 1.156
- AUC (SCC25_UPPER_AERODIGESTIVE_TRACT): 1.213
- AUC (SF126_CENTRAL_NERVOUS_SYSTEM): 0.9298
- AUC (SF295_CENTRAL_NERVOUS_SYSTEM): 1.194
- AUC (SF539_CENTRAL_NERVOUS_SYSTEM): 1.114
- AUC (SH4_SKIN): 0.9981
- AUC (SH10TC_STOMACH): 1.171
- AUC (SIMA_AUTONOMIC_GANGLIA): 1.067
- AUC (SJSA1_BONE): 0.8737
- AUC (SKES1_BONE): 1.109
- AUC (SKHEP1_LIVER): 0.8252
- AUC (SKLU1_LUNG): 1.249
- AUC (SKMEL2_SKIN): 1.0683
- AUC (SKMEL3_SKIN): 1.137
- AUC (SKMEL5_SKIN): 0.8995
- AUC (SKMEL24_SKIN): 0.8575
- AUC (SKMEL30_SKIN): 1.211
- AUC (SKMES1_LUNG): 0.9911
- AUC (SKNAS_AUTONOMIC_GANGLIA): 1.242
- AUC (SKNBE2_AUTONOMIC_GANGLIA): 1.137
- AUC (SKOV3_OVARY): 1.101
- AUC (SKUT1_SOFT_TISSUE): 1.057
- AUC (SNB75_CENTRAL_NERVOUS_SYSTEM): 1.2
- AUC (SNGM_ENDOMETRIUM): 1.197
- AUC (SNU46_UPPER_AERODIGESTIVE_TRACT): 1.125
- AUC (SNU61_LARGE_INTESTINE): 1.275
- AUC (SNU81_LARGE_INTESTINE): 1.088
- AUC (SNU213_PANCREAS): 1.089
- AUC (SNU245_BILIARY_TRACT): 1.207
- AUC (SNU308_BILIARY_TRACT): 1.147
- AUC (SNU398_LIVER): 1.135
- AUC (SNU407_LARGE_INTESTINE): 0.9535
- AUC (SNU410_PANCREAS): 1.257
- AUC (SNU423_LIVER): 0.9946
- AUC (SNU449_LIVER): 1.202
- AUC (SNU466_CENTRAL_NERVOUS_SYSTEM): 1.108
- AUC (SNU601_STOMACH): 1.158
- AUC (SNU668_STOMACH): 0.9614
- AUC (SNU685_ENDOMETRIUM): 1.162
- AUC (SNU719_STOMACH): 1.114
- AUC (SNU738_CENTRAL_NERVOUS_SYSTEM): 1.181
- AUC (SNU761_LIVER): 1.163
- AUC (SNU840_OVARY): 0.883
- AUC (SNU869_BILIARY_TRACT): 1.149
- AUC (SNU886_LIVER): 1.1718
- AUC (SNU1041_UPPER_AERODIGESTIVE_TRACT): 1.098
- AUC (SNU1066_UPPER_AERODIGESTIVE_TRACT): 1.273
- AUC (SNU1076_UPPER_AERODIGESTIVE_TRACT): 1.222
- AUC (SNU1077_ENDOMETRIUM): 1.256
- AUC (SNU1079_BILIARY_TRACT): 1.079
- AUC (SNU1105_CENTRAL_NERVOUS_SYSTEM): 1.1033
- AUC (SNU1196_BILIARY_TRACT): 1.008
- AUC (SNU1214_UPPER_AERODIGESTIVE_TRACT): 1.185
- AUC (SNUC2A_LARGE_INTESTINE): 1.021
- AUC (SNUC4_LARGE_INTESTINE): 0.9159
- AUC (SNUC5_LARGE_INTESTINE): 1.066
- AUC (SQ1_LUNG): 1.1
- AUC (SUIT2_PANCREAS): 1.124
- AUC (SW48_LARGE_INTESTINE): 0.6832
- AUC (SW480_LARGE_INTESTINE): 1.185
- AUC (SW579_THYROID): 1.033
- AUC (SW620_LARGE_INTESTINE): 1.193
- AUC (SW780_URINARY_TRACT): 0.8319
- AUC (SW837_LARGE_INTESTINE): 1.121
- AUC (SW900_LUNG): 1.197
- AUC (SW948_LARGE_INTESTINE): 1.0613
- AUC (SW1088_CENTRAL_NERVOUS_SYSTEM): 1.216
- AUC (SW1271_LUNG): 0.9516
- AUC (SW1353_BONE): 1.036
- AUC (SW1573_LUNG): 0.9119
- AUC (SW1710_URINARY_TRACT): 1.113
- AUC (SW1990_PANCREAS): 1.0624
- AUC (T3M10_LUNG): 1.167
- AUC (T24_URINARY_TRACT): 1.096
- AUC (T47D_BREAST): 1.041
- AUC (T98G_CENTRAL_NERVOUS_SYSTEM): 0.9597
- AUC (TCCPAN2_PANCREAS): 1.066
- AUC (TCCSUP_URINARY_TRACT): 1.257
- AUC (TE1_OESOPHAGUS): 1.118
- AUC (TE4_OESOPHAGUS): 1.169
- AUC (TE5_OESOPHAGUS): 1.116
- AUC (TE6_OESOPHAGUS): 1.1488
- AUC (TE8_OESOPHAGUS): 1.279
- AUC (TE9_OESOPHAGUS): 0.9402
- AUC (TE10_OESOPHAGUS): 1.052
- AUC (TE11_OESOPHAGUS): 1.135
- AUC (TEN_ENDOMETRIUM): 1.229
- AUC (TM31_CENTRAL_NERVOUS_SYSTEM): 1.145
- AUC (TM87_SOFT_TISSUE): 0.8528
- AUC (TOV21G_OVARY): 0.8573
- AUC (TOV112D_OVARY): 1.15
- mean diff. between TP53 functional WT and functional mutant populations (AUC) (TP53 annotation by functional scores of Giacomelli et al.): 0.165 ± 0.011
- AUC (TT2609C02_THYROID): 1.113
- AUC (TT_OESOPHAGUS): 1.115
- AUC (TT_THYROID): 0.8544
- AUC (TUHR4TKB_KIDNEY): 0.8234
- AUC (U2OS_BONE): 0.8753
- AUC (U118MG_CENTRAL_NERVOUS_SYSTEM): 1.124
- AUC (U251MG_CENTRAL_NERVOUS_SYSTEM): 1.1855
- AUC (UACC62_SKIN): 0.841
- AUC (UACC257_SKIN): 0.9099
- AUC (UBLC1_URINARY_TRACT): 1.2
- AUC (UMUC1_URINARY_TRACT): 1.103
- AUC (UO31_KIDNEY): 0.9228
- AUC (VMCUB1_URINARY_TRACT): 1.108
- AUC (VMRCRCW_KIDNEY): 1.098
- AUC (VMRCRCZ_KIDNEY): 1.139
- AUC (WM88_SKIN): 0.8161
- AUC (WM793_SKIN): 0.8713
- AUC (WM983B_SKIN): 0.9957
- AUC (WM1799_SKIN): 0.8817
- AUC (WM2664_SKIN): 0.8653
- AUC (YAPC_PANCREAS): 1.201
- AUC (YD8_UPPER_AERODIGESTIVE_TRACT): 1.226
- AUC (YD10B_UPPER_AERODIGESTIVE_TRACT): 1.17
- AUC (YD15_SALIVARY_GLAND): 1.2
- AUC (YD38_UPPER_AERODIGESTIVE_TRACT): 1.227
- AUC (YH13_CENTRAL_NERVOUS_SYSTEM): 1.109
- AUC (YKG1_CENTRAL_NERVOUS_SYSTEM): 1.146
- AUC (ZR751_BREAST): 1.121
